# Laboratory results as given in PubChem BioAssay (NCI).
#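 Briefly, cells in 96-well plates were exposed to five compound concentrations for 48 h, and endpoints were estimated by linear interpolation. The concentration for full growth arrest is given as TGI.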
# What was measured:
# Assay in all cases: inhibition of tumour cell growth, NCI panel, 48 h
# SF-539 CNS = system: SF-539 CNS
# SNB-78 CNS = system: SNB-78 CNS
# SK-OV-3 ovarian = system: SK-OV-3 ovarian
# 786-0 renal = system: 786-0 renal
# NCI-H460 lung = system: NCI-H460 lung
# A549 NSCLC = system: A549 NSCLC
# KM12 colon = system: KM12 colon
# LOX IMVI melanoma = system: LOX IMVI melanoma
# DMS 114 small cell lung = system: DMS 114 small cell lung
# SK-MEL-5 melanoma = system: SK-MEL-5 melanoma
# OVCAR-8 ovarian = system: OVCAR-8 ovarian
# HCC-2998 colon = system: HCC-2998 colon
# XF 498 CNS = system: XF 498 CNS
# SNB-19 CNS = system: SNB-19 CNS
# HOP-62 NSCLC = system: HOP-62 NSCLC
# IGROV1 ovarian = system: IGROV1 ovarian
# UO-31 renal = system: UO-31 renal
# U251 CNS = system: U251 CNS
# OVCAR-4 ovarian = system: OVCAR-4 ovarian
# HCT-15 colon = system: HCT-15 colon
# CAKI-1 renal = system: CAKI-1 renal
# DLD-1 colon = system: DLD-1 colon
# HCT-116 colon = system: HCT-116 colon
# HT29 colon = system: HT29 colon
# UACC-62 melanoma = system: UACC-62 melanoma
# RXF 393 renal = system: RXF 393 renal
# SK-MEL-28 melanoma = system: SK-MEL-28 melanoma
# UACC-257 melanoma = system: UACC-257 melanoma
# SN12C renal = system: SN12C renal
# ACHN renal = system: ACHN renal
# A498 renal = system: A498 renal
# SK-MEL-2 melanoma = system: SK-MEL-2 melanoma
# M14 melanoma = system: M14 melanoma
# SR leukemia = system: SR leukemia
# NCI-H23 lung = system: NCI-H23 lung
# DMS 273 small cell lung = system: DMS 273 small cell lung
# TK-10 renal = system: TK-10 renal
# MOLT-4 leukemia = system: MOLT-4 leukemia
# SW-620 colon = system: SW-620 colon
# OVCAR-5 ovarian = system: OVCAR-5 ovarian
# MALME-3M melanoma = system: MALME-3M melanoma
# NCI-H226 lung = system: NCI-H226 lung
# SF-268 CNS = system: SF-268 CNS
# NCI-H522 lung = system: NCI-H522 lung
# RXF-631 renal = system: RXF-631 renal
# EKVX NSCLC = system: EKVX NSCLC
# K-562 leukemia = system: K-562 leukemia
# SF-295 CNS = system: SF-295 CNS
# KM20L2 colon = system: KM20L2 colon
# RPMI-8226 leukemia = system: RPMI-8226 leukemia
# COLO 205 colon = system: COLO 205 colon
# LXFL 529 NSCLC = system: LXFL 529 NSCLC
# M19-MEL melanoma = system: M19-MEL melanoma
# OVCAR-3 ovarian = system: OVCAR-3 ovarian
# HOP-92 NSCLC = system: HOP-92 NSCLC
# CCRF-CEM leukemia = system: CCRF-CEM leukemia
# SNB-75 CNS = system: SNB-75 CNS
# HL-60(TB) leukemia = system: HL-60(TB) leukemia
smiles,measurement,setting,value
O=C(NCC#CCO)C(F)(F)F,TGI,SF-539 CNS,> 100 µM
same,TGI,SNB-78 CNS,> 100 µM
same,TGI,SK-OV-3 ovarian,> 100 µM
same,TGI,786-0 renal,> 100 µM
same,TGI,NCI-H460 lung,> 100 µM
same,TGI,A549 NSCLC,> 100 µM
same,TGI,KM12 colon,> 100 µM
same,TGI,LOX IMVI melanoma,> 100 µM
same,TGI,DMS 114 small cell lung,> 100 µM
same,TGI,SK-MEL-5 melanoma,> 100 µM
same,TGI,OVCAR-8 ovarian,> 100 µM
same,TGI,HCC-2998 colon,> 100 µM
same,TGI,XF 498 CNS,> 100 µM
same,TGI,SNB-19 CNS,> 100 µM
same,TGI,HOP-62 NSCLC,> 100 µM
same,TGI,IGROV1 ovarian,> 100 µM
same,TGI,UO-31 renal,> 100 µM
same,TGI,U251 CNS,> 100 µM
same,TGI,OVCAR-4 ovarian,> 100 µM
same,TGI,HCT-15 colon,> 100 µM
same,TGI,CAKI-1 renal,> 100 µM
same,TGI,DLD-1 colon,> 100 µM
same,TGI,HCT-116 colon,> 100 µM
same,TGI,HT29 colon,> 100 µM
same,TGI,UACC-62 melanoma,> 100 µM
same,TGI,RXF 393 renal,> 100 µM
same,TGI,SK-MEL-28 melanoma,> 100 µM
same,TGI,UACC-257 melanoma,> 100 µM
same,TGI,SN12C renal,> 100 µM
same,TGI,ACHN renal,> 100 µM
same,TGI,A498 renal,> 100 µM
same,TGI,SK-MEL-2 melanoma,> 100 µM
same,TGI,M14 melanoma,> 100 µM
same,TGI,SR leukemia,> 100 µM
same,TGI,NCI-H23 lung,> 100 µM
same,TGI,DMS 273 small cell lung,> 100 µM
same,TGI,TK-10 renal,> 100 µM
same,TGI,MOLT-4 leukemia,> 100 µM
same,TGI,SW-620 colon,> 100 µM
same,TGI,OVCAR-5 ovarian,> 100 µM
same,TGI,MALME-3M melanoma,> 100 µM
same,TGI,NCI-H226 lung,> 100 µM
same,TGI,SF-268 CNS,> 100 µM
same,TGI,NCI-H522 lung,> 100 µM
same,TGI,RXF-631 renal,> 100 µM
same,TGI,EKVX NSCLC,> 100 µM
COc1ccc(/C(Cl)=C(\C=O)c2ccc(Cl)c(Cl)c2)cc1OC,TGI,SF-539 CNS,19.2 µM
same,TGI,K-562 leukemia,> 100 µM
same,TGI,SNB-78 CNS,31.2 µM
same,TGI,SK-OV-3 ovarian,75.4 µM
same,TGI,SF-295 CNS,15.9 µM
same,TGI,NCI-H460 lung,12.4 µM
same,TGI,KM20L2 colon,18.8 µM
same,TGI,LOX IMVI melanoma,13.6 µM
same,TGI,DMS 114 small cell lung,33.9 µM
same,TGI,SK-MEL-5 melanoma,26.6 µM
same,TGI,OVCAR-8 ovarian,57.7 µM
same,TGI,RPMI-8226 leukemia,5.5 µM
same,TGI,XF 498 CNS,7.95 µM
same,TGI,SNB-19 CNS,65.9 µM
same,TGI,COLO 205 colon,33.7 µM
same,TGI,LXFL 529 NSCLC,13.7 µM
same,TGI,HOP-62 NSCLC,31.7 µM
same,TGI,UO-31 renal,20.7 µM
same,TGI,U251 CNS,15 µM
same,TGI,HCT-15 colon,20.7 µM
same,TGI,CAKI-1 renal,18.8 µM
same,TGI,DLD-1 colon,20.3 µM
same,TGI,HCT-116 colon,15.2 µM
same,TGI,M19-MEL melanoma,23 µM
same,TGI,HT29 colon,8.77 µM
same,TGI,UACC-62 melanoma,24.2 µM
same,TGI,OVCAR-3 ovarian,26.3 µM
same,TGI,SK-MEL-28 melanoma,28 µM
same,TGI,SN12C renal,18.7 µM
same,TGI,ACHN renal,18.2 µM
same,TGI,A498 renal,30.4 µM
same,TGI,HOP-92 NSCLC,13.8 µM
same,TGI,SK-MEL-2 melanoma,15 µM
same,TGI,M14 melanoma,26.3 µM
same,TGI,DMS 273 small cell lung,21.7 µM
same,TGI,TK-10 renal,51.4 µM
same,TGI,MOLT-4 leukemia,5.76 µM
same,TGI,CCRF-CEM leukemia,8.72 µM
same,TGI,SW-620 colon,16.3 µM
same,TGI,MALME-3M melanoma,42.5 µM
same,TGI,NCI-H226 lung,18.6 µM
same,TGI,SNB-75 CNS,0.938 µM
same,TGI,SF-268 CNS,18.5 µM
same,TGI,NCI-H522 lung,6.53 µM
same,TGI,RXF-631 renal,16.6 µM
same,TGI,EKVX NSCLC,30.6 µM
same,TGI,HL-60(TB) leukemia,6.67 µM
